Measured values as given in patent US20120015961A1, “ISOTHIOUREA DERIVATIVES OR ISOUREA DERIVATIVES HAVING BACE1 INHIBITORY ACTIVITY” (SHIONOGI & CO., LTD., priority 2009, published 2012).

Tests used:
[1] = test system: Neuroblastoma SH-SY5Y cells (SH/APPwt) with human wild-type β-APP excessively expressed; assay: Measurement of β-amyloid (Aβ) production inhibitory effect in cell; type: cell-based; details: amount needed to inhibit Aβ production by 50%, 24 hours incubation, Amyloid β1-40 HTRF
Experimental: Neuroblastoma SH-SY5Y cells (SH/APPwt) with human wild-type β-APP excessively expressed therein were prepared at 8×10^5 cells/mL, and 150 μl portions thereof were inoculated into each well of a 96-well culture plate (Falcon). The cells were cultured for 2 hours at 37° C. in a 5% gaseous carbon dioxide incubator. Then, a solution which had been preliminarily prepared by adding and suspending the test compound (DMSO (dimethyl sulfoxide) solution) so as to be 2 μl/50 μl medium was added to the cell sap. Namely, the final DMSO concentration was 1%, and the amount of the cell culture was 200 μl. After the incubation was performed for 24 hours from the addition of the test compound, 100 μl of the culture supernatant was collected from each fraction. The amount of the Aβ in each fraction was measured.
The […] was measured as follows. 10 μl of a homogeneous time resolved fluorescence (HTRF) measurement reagent (Amyloid β1-40 peptide; IBA Molecular Holding, S.A.) and 10 μl of the culture supernatant were put into a 384-well half area microplate (black microplate, Costar) and mixed with each other, and then left standing overnight at 4° C. while the light was shielded. Then, the fluorescence intensity (excitation wavelength: 337 nm, measurement wavelength: 620 nm and 665 nm) was measured with a Wallac 1420 multilabel counter (Perkin Elmer life sciences). The Aβ amount was determined from the count rate at each measurement wavelength (10000×Count 665/Count 620), and the amount needed to inhibit Aβ production by 50% (IC50) was calculated from at least six different dosages.

Recombinant human BACE1 = target: T1, Recombinant human BACE1 (Homo sapiens, UniProt P56817); assay: Assay of BACE1 inhibiting activity; type: biochemical; details: 50% inhibitory concentration against enzymatic activity, pH 5.0, 30° C., 3 hours
T1 construct: purchased R&D Systems
T1 sequence (P56817 46-501): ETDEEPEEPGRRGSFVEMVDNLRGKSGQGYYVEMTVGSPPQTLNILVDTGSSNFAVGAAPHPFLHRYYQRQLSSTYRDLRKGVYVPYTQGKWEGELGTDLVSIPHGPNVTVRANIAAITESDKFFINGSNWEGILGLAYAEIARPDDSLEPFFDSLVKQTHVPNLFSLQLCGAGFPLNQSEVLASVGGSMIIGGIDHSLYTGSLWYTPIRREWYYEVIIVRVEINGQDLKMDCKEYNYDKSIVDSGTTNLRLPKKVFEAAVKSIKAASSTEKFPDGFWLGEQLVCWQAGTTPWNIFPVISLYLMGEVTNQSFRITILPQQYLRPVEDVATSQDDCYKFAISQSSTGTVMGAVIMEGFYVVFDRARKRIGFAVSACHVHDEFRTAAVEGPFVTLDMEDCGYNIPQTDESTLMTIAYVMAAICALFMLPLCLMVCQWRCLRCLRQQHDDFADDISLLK
Experimental: 48.5 μL of substrate peptide solution (Biotin-XSEVNLDAEFRHDSGC-Eu: Xεε-amino-n-capronic acid, Eu=Europium cryptate) was added to each well of 96-hole half-area plate (a black plate: Costar Corporation), and after addition of 0.5 μl of the test compound (dissolved in […]) and 1 μl of Recombinant human BACE1 (R&D Systems), the reaction mixture was incubated at 30° C. for 3 hours. The substrate peptide was synthesized by reacting Cryptate TBPCOOH mono SMP (CIS bio international) with Biotin-XSEVNLDAEFRHDSGC (Peptide Institute, Inc.). The final concentrations of the substrate peptide and Recombinant human BACE1 were adjusted to 18 nM and 7.4 nM respectively, and the reaction was performed in sodium acetate buffer (50 mM sodium acetate, pH 5.0, 0.008% Triton X-100). After the completion of reaction, 50 μl of 8.0 μg/ml Streptavidin-XL665 (CIS bio international) dissolved in phosphate buffer (150 mM K2HPO4—KH2PO4, pH 7.0, 0.008% Triton X-100, 0.8 M KF) was added to each well and left stand at 30° C. for an hour. Then, fluorescence intensity was measured (excitation wavelength: 320 nm, measuring wavelength: 620 nm and 665 nm) using Wallac 1420 multilabel counter (Perkin Elmer life sciences). Enzymatic activity was determined from counting ratio of each wavelength (10,000×Count 665/Count 620) and 50% inhibitory concentration against the enzymatic activity was calculated.

| Compound | IC50 ([1]; Homo sapiens, SH-SY5Y, 24 h) [nM] | IC50 (Recombinant human BACE1) [nM] | IC50 [1] [nM] |
| --- | --- | --- | --- |
| CO/C(N)=N/C(C)(c1ccc(F)cc1)c1cccc(NC(=O)c2ccc(C#N)cn2)c1 (single isomer, unassigned) [Compound 101] | ≤ 1000 | ≤ 1000 |  |
| CC#CCOc1cnc(C(=O)Nc2cccc(C/N=C(/N)SCc3cccnc3)c2)cn1 [Compound 10] | ≤ 1000 | ≤ 1000 |  |
| CC#CCOc1cnc(C(=O)Nc2cccc(C3(/N=C(/N)SC)CC3)c2)cn1 [Compound 14] | ≤ 1000 | ≤ 1000 |  |
| CC#CCOc1cnc(C(=O)Nc2ccc(F)c(C/N=C(/N)SC)c2)cn1 [Compound 16] | ≤ 1000 | ≤ 1000 |  |
| CC#CCOc1cnc(C(=O)Nc2cccc(C/N=C(/N)SCCCO)c2)cn1 [Compound 17] | ≤ 1000 | ≤ 1000 |  |
| CC#CCOc1cnc(C(=O)Nc2cccc(C(/N=C(/N)SC)c3ccc(OC)cc3)c2)cn1 (centres unmarked) [Compound 21] | ≤ 1000 | ≤ 1000 |  |
| COc1ccc(C(/N=C(/N)SC)c2cccc(NC(=O)c3ncc(Cl)cc3Cl)c2)cc1 (centres unmarked) [Compound 22] | ≤ 1000 |  |  |
| COc1ccc(C(/N=C(/N)SC)c2cccc(NC(=O)c3ccc(C#N)cn3)c2)cc1 (centres unmarked) [Compound 23] | ≤ 1000 |  |  |
| COc1ccc(C(/N=C(/N)SC)c2cccc(NC(=O)c3cnc(OC)cn3)c2)cc1 (centres unmarked) [Compound 24] | ≤ 1000 |  |  |
| COc1cnc(C(=O)Nc2ccc(F)c(C(C)/N=C(/N)SC)c2)cn1 (centres unmarked) [Compound 26] | ≤ 1000 |  |  |
| CS/C(N)=N\C(C)c1cc(NC(=O)c2ccc(C#N)cn2)ccc1F (centres unmarked) [Compound 27] | ≤ 1000 |  |  |
| CO/C(N)=N/Cc1cccc(NC(=O)c2ccc(C#N)cn2)c1 [Compound 33] | ≤ 1000 |  |  |
| CCCO/C(N)=N\Cc1cccc(NC(=O)c2ccc(C#N)cn2)c1 [Compound 34] | ≤ 1000 |  |  |
| COCCO/C(N)=N\Cc1cccc(NC(=O)c2ccc(C#N)cn2)c1 [Compound 35] | ≤ 1000 |  |  |
| COCCCO/C(N)=N/Cc1cccc(NC(=O)c2ccc(C#N)cn2)c1 [Compound 37] | ≤ 1000 |  |  |
| CO/C(N)=N\Cc1cc(NC(=O)c2ccc(C#N)cn2)ccc1F [Compound 42] | ≤ 1000 |  |  |
| CO/C(N)=N\Cc1cc(NC(=O)c2cnc(OC)cn2)ccc1F [Compound 43] | ≤ 1000 |  |  |
| CO/C(N)=N\C1(c2cc(NC(=O)c3ccc(C#N)cn3)ccc2F)CC1 [Compound 46] | ≤ 1000 |  |  |
| CO/C(N)=N\C1(c2cc(NC(=O)c3cnc(OC)cn3)ccc2F)CC1 [Compound 47] | ≤ 1000 |  |  |
| CO/C(N)=N/C(c1cccc(F)c1)c1cccc(NC(=O)c2ccc(C#N)cn2)c1 (centres unmarked) [Compound 51] | ≤ 1000 | ≤ 1000 |  |
| CO/C(N)=N\[C@H](c1ccc(F)cc1)c1cccc(NC(=O)c2ccc(C#N)cn2)c1 [Compound 52] | ≤ 1000 | ≤ 1000 |  |
| CO/C(N)=N/C(c1cccc(NC(=O)c2ccc(C#N)cn2)c1)c1cccc(OC)c1 (centres unmarked) [Compound 53] | ≤ 1000 | ≤ 1000 |  |
| CO/C(N)=N\C(c1cccc(NC(=O)c2ccc(C#N)cn2)c1)c1ccc2c(c1)CCO2 (centres unmarked) [Compound 54] | ≤ 1000 | ≤ 1000 |  |
| CO/C(N)=N\C(c1cccc(NC(=O)c2ccc(C#N)cn2)c1)c1ccc(OC)c(F)c1 (centres unmarked) [Compound 55] | ≤ 1000 | ≤ 1000 |  |

| Compound | IC50 ([1]; Homo sapiens, SH-SY5Y, 24 h) [nM] | IC50 (Recombinant human BACE1) [nM] | IC50 [1] [nM] |
| --- | --- | --- | --- |
| CO/C(N)=N\C(c1ccc(OC)cc1)c1cccc(NC(=O)c2ccc(C#N)cn2)c1 (centres unmarked) [Compound 57] | ≤ 1000 | ≤ 1000 |  |
| CO/C(N)=N\C(c1ccc(OC)cc1)c1cccc(NC(=O)c2cnc(OC)cn2)c1 (centres unmarked) [Compound 58] | 18 | ≤ 1000 |  |
| CC#CCOc1cnc(C(=O)Nc2cccc(C(C)(C)/N=C(/N)SC)c2)cn1 [Compound 64] | ≤ 1000 |  |  |
| CC#CCOc1cnc(C(=O)Nc2ccc(Oc3ccccc3)c(C/N=C(/N)SC)c2)cn1 [Compound 68] | ≤ 1000 | ≤ 1000 |  |
| CC#CCOc1cnc(C(=O)Nc2ccc(Oc3cccc(OC)c3)c(C/N=C(/N)SC)c2)cn1 [Compound 70] | ≤ 1000 | ≤ 1000 |  |
| CO/C(N)=N\c1cccc2ccc(NC(=O)c3ccc(C#N)cn3)cc12 [Compound 75] | ≤ 1000 | ≤ 1000 |  |
| CS/C(N)=N\c1c(C)ccc2ccc(NC(=O)c3ccc(C#N)cn3)cc12 [Compound 79] | ≤ 1000 | ≤ 1000 |  |
| CO/C(N)=N/C(C)c1cccc(NC(=O)c2ccc(C#N)cn2)c1 (centres unmarked) [Compound 82] | ≤ 1000 |  |  |
| CO/C(N)=N/C(C)c1cccc(NC(=O)c2cnc(OC)cn2)c1 (centres unmarked) [Compound 83] | ≤ 1000 |  |  |
| CO/C(N)=N/C(C)c1cc(NC(=O)c2ccc(C#N)cn2)ccc1F (centres unmarked) [Compound 84] | ≤ 1000 |  |  |
| CO/C(N)=N/C(C)c1cc(NC(=O)c2cnc(OC)cn2)ccc1F (centres unmarked) [Compound 85] | ≤ 1000 |  |  |
| CO/C(N)=N/C(C)(c1ccc(F)cc1)c1cccc(NC(=O)c2ccc(C#N)cn2)c1 (centres unmarked) [Compound 88] |  | ≤ 1000 | 24 |
| CO/C(N)=N\C(c1ccc(Cl)cc1)c1cccc(NC(=O)c2cnc(C)cn2)c1 (centres unmarked) [Compound 90] | ≤ 1000 |  |  |
| CO/C(N)=N\C(c1ccc(Cl)cc1)c1cccc(NC(=O)c2ccc(C#N)cn2)c1 (centres unmarked) [Compound 91] | ≤ 1000 | ≤ 1000 |  |
| CO/C(N)=N\C(c1ccc(Cl)cc1)c1cccc(NC(=O)c2cnc(OC)cn2)c1 (centres unmarked) [Compound 92] | ≤ 1000 | ≤ 1000 |  |
| CO/C(N)=N\C(c1ccc(Cl)cc1)c1cccc(NC(=O)c2ccc(Cl)cn2)c1 (centres unmarked) [Compound 93] | ≤ 1000 | ≤ 1000 |  |
| CC#CCOc1cnc(C(=O)Nc2cccc(C(/N=C(/N)OC)c3ccc(Cl)cc3)c2)cn1 (centres unmarked) [Compound 94] | ≤ 1000 | 32 |  |
| COC(=N)NC(c1ccc(OC(C)C)cc1)c1cccc(NC(=O)c2ccc(C#N)cn2)c1 (centres unmarked) [Compound 95] | ≤ 1000 | ≤ 1000 |  |
| COC(=N)NC(c1ccc(OCc2ccccc2)cc1)c1cccc(NC(=O)c2ccc(C#N)cn2)c1 (centres unmarked) [Compound 96] | ≤ 1000 | ≤ 1000 |  |
| [2H]C([2H])([2H])Oc1cnc(C(=O)Nc2cccc(C3(/N=C(/N)OC)CC3)c2)cn1 [Compound 97] | ≤ 1000 | ≤ 1000 |  |
| CO/C(N)=N/C(C)(c1ccc(OC)cc1)c1cccc(NC(=O)c2ccc(C#N)cn2)c1 (centres unmarked) [Compound 98] | ≤ 1000 | ≤ 1000 |  |
| CO/C(N)=N\C(c1cccc(NC(=O)c2ccc(C#N)cn2)c1)C(F)(F)F (centres unmarked) [Compound 99] | ≤ 1000 |  |  |
| [2H]C([2H])([2H])Oc1ccc(C(NC(=N)OC)c2cccc(NC(=O)c3ccc(C#N)cn3)c2)cc1 (centres unmarked) [Compound 102] | ≤ 1000 | ≤ 1000 |  |
